# Test results published in patent publication US20250003968A1, “ACTIVITY-BASED CELL SORTING” (MASSACHUSETTS INSTITUTE OF TECHNOLOGY, priority 2021, published 2025).
# *1 amine or outer side, *2 acyl side, *3 side chain or, on linkers, in order; H or OH if unused. Where no end group is shown, it is not given here. [ ]: non-standard residue; d: D form. The star is where a group is joined. 5FAM = O=C1OC2(c3ccc(O)cc3Oc3cc(O)ccc32)c2ccc(C(=O)*)cc21; Suc = O=C(CCC(=O)[*:2])[*:1]; Cy3 = Cy3 fluorophore label; Cy5 = Cy5 fluorophore label; Ahx = NCCCCCC(=O)O
# Tests used:
# [1] = tested on: serine proteases of mouse colon tissue sections; assay: AZP staining of frozen mouse colon sections; assay type: biochemical
# From the text: We validated the AZP principle on colon tissue, whose epithelial cells secrete serine proteases including urokinase plasminogen activator (uPA). We therefore synthesized a Cy5-labeled AZP, termed PZ2 (SEQ ID NO:176), containing a serine protease-cleavable linker. Because similar peptides had never been applied directly to frozen tissue sections, it was unknown whether AZPs would nonspecifically bind to the tissue, or whether proteolytic cleavage would be required for AZP binding. We therefore pre-cleaved PZ2 with a serine protease, mesotrypsin (PRSS3) and applied it to a frozen section of mouse colon for 30 minutes. As a binding control, we also applied intact, uncleaved PZ2 to a consecutive section of mouse colon.
# Having verified that proteolytic cleavage induces AZP binding, we next sought to validate whether AZPs could enable localization of protease activity in situ (FIG. 19a). Specifically, it was unknown whether frozen tissue sections would maintain sufficient protease activity to induce probe cleavage or whether cleaved probes would bind at the site of cleavage rather than diffusing to a distant site. We applied PZ2 and a binding control (free polyR-Cy7) to fresh-frozen sections of mouse colon (FIG. 19b). […] These findings verified that protease activity in the tissue section was necessary and sufficient to activate AZPs. Strikingly, we found strong colocalization of PZ2 with E-cadherin, a specific marker of epithelial cells, providing evidence that cleaved AZPs bind at the site of cleavage, rather than diffusing to a distant site (FIG. 19d).
# [2] = tested on: homogenates of prostates from Hi-Myc PCa mice; assay: Multiplexed bead-coupled substrate screen against prostate homogenates; assay type: biochemical, mouse; conditions: pre-treatment of Hi-Myc prostate homogenates
# Experimental: We turned to the Hi-Myc genetically engineered mouse model of PCa, wherein c-Myc is overexpressed in the murine prostate, resulting in invasive PCa. We selected a panel of 18 peptides previously found by our group to be recognized by a diverse array of metallo- and serine proteases dysregulated in PCa^20 and appended each with a unique, mass-encoded reporter molecule. We coupled these barcoded substrates to magnetic beads via a non-cleavable poly(ethylene glycol) (PEG) linker and incubated the bead cocktail against homogenates of prostates from PCa mice and from age-matched healthy controls (FIG. 20a). Beads were pulled down via magnetic separation, and liberated reporter molecules in the supernatant were measured by mass spectrometry, enabling quantification of substrate cleavage. Unsupervised hierarchical clustering of the cleavage data yielded two distinct clusters corresponding to prostates from PCa mice and prostates from healthy mice (FIG. 20b).
# [3] = tested on: tissue-resident proteases in Eml4-Alk lung tissue sections; assay: In situ zymography with AZPs on fresh-frozen lung tissue sections; assay type: biochemical, mouse; conditions: for effect of inhibitor on Z1 tissue labeling: Eml4-Alk lung sections, 1 mM marimastat, 400 μM AEBSF or inhibitor cocktail; for AZP labeling of Eml4-Alk lung tissue: individual AZPs on consecutive sections, 7 weeks after tumor induction
# Experimental: Mice were euthanized by isoflurane overdose. Lungs were then filled with undiluted optimal-cutting-temperature (OCT) compound through catheterization of the trachea; the trachea was subsequently clamped; and lungs were extracted. Individual lobes were dissected and then immediately embedded and frozen in optimal-cutting-temperature (OCT) compound (Sakura).
# Cryosectioning was performed at the Koch Institute Histology Core. Prior to staining, slides were air dried, fixed in ice-cold acetone for 10 minutes, and then air dried. After hydration in PBS (3×5 minutes), tissue sections were blocked in protease assay buffer (50 mM Tris, 300 mM NaCl, 10 mM CaCl2), 2 mM ZnCl2, 0.02% (v/v) Brij-35, 1% (w/v) BSA, pH 7.5) for 30 minutes at room temperature. Blocking buffer was aspirated, and solution containing fluorescently labeled AZPs (1 μM each AZP) and a free poly-arginine control (polyR, 0.1 μM) diluted in the protease assay buffer was applied. Slides were incubated in a humidified chamber at 37° C. for 4 hours. For inhibited controls, 400 μM AEBSF (Sigma Aldrich), 1 mM marimastat (Sigma Aldrich), or protease inhibitor cocktail (P8340, Sigma Aldrich) spiked with AEBSF and marimastat was added to the buffer at both the blocking and cleavage assay steps. For uninhibited conditions, dimethyl sulfoxide (DMSO) was added to the assay buffer to a final concentration of 3% (v/v). For co-staining experiments, primary antibodies (E-cadherin, AF748, R&D Systems, 4 μg/mL; vimentin, ab92547, Abcam, 0.5 μg/mL; CD31, AF3628, R&D Systems, 10 μg/mL; desmin, ab227651, Abcam, 1.32 μg/mL) were included in the AZP solution. Following AZP incubation, slides were washed in PBS (3×5 minutes), stained with Hoechst (5 μg/mL, Invitrogen) and the appropriate secondary antibody if relevant (Invitrogen, 1:500), washed in PBS (3×5 minutes), and mounted with ProLong™ Diamond Antifade Mountant (Invitrogen). Slides were scanned on a Pannoramic 250 Flash III whole slide scanner (3DHistech).
# The Z1 AZP (10 μmol/L) was incubated with recombinant fibroblast activation protein (FAP) in FAP assay buffer (50 mM Tris, 1 M NaCl, pH 7.5) overnight at 37° C. to run the cleavage reaction to completion. After precleavage with recombinant FAP, the AZP solution was diluted to a final peptide concentration of 0.1 μM in protease assay buffer. Cognate intact Z1 AZP (1 μmol/L) and precleaved Z1 AZP, each with a free polyR control (0.1 μM), were applied to fresh-frozen Eml4-Alk lung tissue sections (slide preparation described above) and incubated at 37° C. for 4 hours. After AZP incubation, slides were washed, stained with Hoechst, mounted, and scanned.
# AZP and immunofluorescence staining was quantified in QuPath™ 0.2.3[53] and in ImageJ™ (NIH, v1.53). To perform cell-by-cell analysis, cell segmentation was performed using automated cell detection on the DAPI (nuclear) channel. For quantification of activity inhibition, AZP staining was calculated as a fold change of the mean nuclear AZP signal over the mean nuclear polyR signal. All nuclei within an individual tumor were averaged across that given tumor. Nuclei with a polyR intensity of less than 3 were excluded from analysis. For quantification of AZP intensity based on cell morphology and marker expression, cells were annotated as “vimentin-positive, spindle” if they were spindle-shaped and expressed vimentin; “E-cadherin-positive, cuboidal” if they were cuboidal-shaped and expressed E-cadherin; “vimentin-positive, round” if they were rounded and expressed vimentin. A random forest classifier was trained on all annotated cells (at least 20 cells per class) using multiple cellular features, including nuclear area and eccentricity, and mean cellular fluorescence intensity across all channels. The trained classifier was then applied to all cells across all tumors in the tissue section, and mean cellular fluorescence intensity was quantified.
# [4] = tested on: pulmonary protease activity; assay: In vivo activity-based nanosensors, urinary reporters by LC-MS/MS; design: species or system mouse; conditions: within 3 days of treatment initiation; 20 mg/kg daily oral gavage
# Experimental: The urinary reporter glutamate-fibrinopeptide B (Glu-Fib) was mass barcoded for detection by mass spectrometry. Nanosensors were dosed (50 μL total volume, 20 μM each nanosensor) in mannitol buffer (0.28 M mannitol, 5 mM sodium phosphate monobasic, 15 mM sodium phosphate dibasic, pH 7.0-7.5) by intratracheal intubation. Anesthesia was induced by isoflurane inhalation, and mice were monitored during recovery. For intratracheal instillation, a volume of 50 μL was administered by passive inhalation following intratracheal intubation with a 22G flexible plastic catheter (Exel). […]
# LC-MS/MS was performed by Syneos Health using a Sciex™ 6500 triple quadrupole instrument. […] Samples were extracted by solid-phase extraction and analyzed by multiple reaction monitoring by LC-MSMS to quantify concentration of each Glu-Fib mass variant. Analyte quantities were normalized to a spiked-in internal standard and concentrations were calculated from a standard curve using peak area ratio (PAR) to the internal standard. […]
# Analyses of urinary reporter data were conducted using the analytic pipelines of the protease activity analysis (PAA) package [52], a publicly available Python package designed to process and visualize enzymatic activity datasets. […] Ten independent train-test trials were run for each classification problem, and classification performance was evaluated with ROC statistics. […]
# [5] = tested on: MMP activity in Hi-Myc prostate tissue sections; assay: AZP staining of fresh-frozen Hi-Myc prostate sections; assay type: biochemical, mouse
# From the text: It was unknown whether AZPs could enable in situ localization of the cleavage of peptides discovered in a screen of bulk homogenates. We therefore synthesized a new AZP (PZ19: SEQ ID NO:186) and applied it to fresh-frozen sections of prostates from Hi-Myc mice (FIG. 21a). With the exception of the protease-cleavable linker and fluorophore, PZ19 was identical in design to the serine protease-responsive PZ2. […] PZ19 labeling was abrogated by the MMP inhibitor marimastat (FIG. 21b middle row), though the free polyR control was unchanged.
# It was unknown whether AZPs could be used in conjunction with antibodies to enable dual zymography and immunofluorescence labeling. […] Further, PZ19 labeling and co-localization with Ki67 was abrogated by addition of marimastat (FIG. 21d).
# [6] = tested on: human PCa tissue microarray; assay: AZP staining of fresh-frozen human PCa tissue microarray (TMA); assay type: biochemical; conditions: for labeling of PCa tissue relative to normal prostates: AZP signal normalized to polyR, normal n=4, PCa n=24 cores; for labeling with vs without broad-spectrum cocktail of protease inhibitors: consecutive TMA sections
# From the text: Two AZPs incorporating MMP-responsive substrates, PZ16 (SEQ ID NO:184) and PZ19, and two AZPs incorporating serine protease-responsive substrates, Z2 (SEQ ID NO:172) and PZ11 (SEQ ID NO:180), were selected for evaluation. We applied these probes, along with a free polyR control, to a frozen human PCa TMA that contained biopsies from normal prostates and PCa tumors across a range of Gleason scores.
# To determine whether AZP binding was dependent on proteolysis, for each probe a consecutive TMA section was treated with a broad-spectrum cocktail of protease inhibitors.
# We then investigated whether AZPs preferentially labeled PCa tissue relative to normal prostates. […] AZP activation and tissue staining across the TMA was quantitatively assessed by normalizing AZP signal intensity to polyR signal to account for differing binding propensities within a single core and across individual specimens. […] We further assessed the classification accuracy of these two in situ probes using receiver operating characteristic (ROC) curves.
# [7] = tested on: T1, PZ2, Cy5-labeled AZP containing a serine protease-cleavable linker
# T1 sequence: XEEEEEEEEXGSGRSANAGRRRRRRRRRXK
# [8] = tested on: T2, quenched probe Q1, incorporating the substrate S1
# T2 sequence: GGPQGIWGQC
compound,measurement,setting,value
"Cl.NCCc1ccc(S(=O)(=O)F)cc1 [AEBSF, 4-(2-aminoethyl)benzenesulfonyl fluoride hydrochloride, reference compound]",effect of inhibitor on PZ2 staining,"[1]; four-hour incubation, mouse colon",abrogated
same,effect of inhibitor on cleavage of PM19,[2],minimally affected cleavage
same,effect of inhibitor on Z1 tissue labeling,[3],completely abrogated Z1 tissue labeling to the level of broad-spectrum inhibition
CCc1cc2c(cc1N1CCC(N3CCOCC3)CC1)C(C)(C)c1[nH]c3cc(C#N)ccc3c1C2=O [alectinib],reporters exhibiting differential enrichment in the urine of vehicle- versus alectinib-treated mice,[4],12 of 14
"CNC(=O)[C@@H](NC(=O)[C@H](CC(C)C)[C@H](O)C(=O)NO)C(C)(C)C [marimastat, reference compound]",effect of inhibitor on cleavage of PM19,[2],fully inhibited cleavage of PM19
same,effect of inhibitor on PZ19 labeling,[5]; Hi-Myc prostate sections,abrogated
same,effect of inhibitor on Z1 tissue labeling,[3],did reduce Z1 signal
U-eeeeeeee-X-GGLVPRGSGG-rrrrrrrrr-X-K(Cy5) (Suc-[dE][dE][dE][dE][dE][dE][dE][dE][Ahx]GGLVPRGSGG[dR][dR][dR][dR][dR][dR][dR][dR][dR][Ahx]K(Cy5)) [Z2],labeling of PCa tissue relative to normal prostates,[6],preferentially label PCa tissue
same,labeling with vs without broad-spectrum cocktail of protease inhibitors,[6],protease-dependent labeling
U-eeeeeeee-X-GPVPLSLVMG-rrrrrrrrr-X-K(5FAM) (Suc-[dE][dE][dE][dE][dE][dE][dE][dE][Ahx]GPVPLSLVMG[dR][dR][dR][dR][dR][dR][dR][dR][dR][Ahx]K(5FAM)) [PZ19],labeling of PCa tissue relative to normal prostates,[6],no significant difference between PCa and normal cores
same,labeling with vs without broad-spectrum cocktail of protease inhibitors,[6],no difference between the uninhibited and inhibited conditions
same,probe labeling of Hi-Myc prostate sections,[5]; fresh-frozen sections,PZ19 labeling in histologically normal glands of the Hi-Myc prostate
same,PZ19 labeling of normal mouse prostate,[5]; histologically similar region of healthy prostate,reduced PZ19 labeling
U-eeeeeeee-X-GSGRSANAG-rrrrrrrrr-X-K(Cy5) (Suc-[dE][dE][dE][dE][dE][dE][dE][dE][Ahx]GSGRSANAG[dR][dR][dR][dR][dR][dR][dR][dR][dR][Ahx]K(Cy5)) [PZ2],probe staining of fresh-frozen mouse colon sections,[1]; four-hour incubation,strong PZ2 staining
same,fluorescence of colon sections treated with intact probe,"[1]; intact, 30 minutes",minimal fluorescence
same,fluorescence of colon sections treated with pre-cleaved probe,"[1]; pre-cleaved with mesotrypsin (PRSS3), 30 minutes",notable fluorescent signal throughout
"U-eeeeeeee-X-GsGrsanaG-rrrrrrrrr-X-K(Cy5) (Suc-[dE][dE][dE][dE][dE][dE][dE][dE][Ahx]G[dS]G[dR][dS][dA][dN][dA]G[dR][dR][dR][dR][dR][dR][dR][dR][dR][Ahx]K(Cy5)) [dPZ2, AZP with a non-cleavable d-stereoisomer linker]",probe staining of fresh-frozen mouse colon sections,[1]; four-hour incubation,no Cy5 fluorescence
UeeeeeeeeXGGLGPKGQTGGrrrrrrrrrX-k(Cy3) (Suc-[dE][dE][dE][dE][dE][dE][dE][dE][Ahx]GGLGPKGQTGG[dR][dR][dR][dR][dR][dR][dR][dR][dR][Ahx][dK](Cy3)) [Z7],AZP labeling of Eml4-Alk lung tissue,[3],"protease-mediated, tumor-specific labeling"
UeeeeeeeeXGGPQGIWGQGrrrrrrrrrX-k(Cy5) (Suc-[dE][dE][dE][dE][dE][dE][dE][dE][Ahx]GGPQGIWGQG[dR][dR][dR][dR][dR][dR][dR][dR][dR][Ahx][dK](Cy5)) [Z1],Z1 staining in CD31-high cells of Eml4-Alk sections relative to CD31-high healthy and CD31-low cells,[3]; Eml4-Alk and healthy lung sections,significantly increased
same,Z1 intensity in vimentin-positive spindle-like cells relative to E-cadherin-positive or vimentin-positive rounded cells,[3]; Eml4-Alk tumors,increased Z1 intensity
same,Z1 staining of Eml4-Alk tumors,[3]; Eml4-Alk tumors vs free polyR binding control,"strong, spindle-like staining"
same,Z1 staining of healthy lungs,[3]; healthy lung sections,undetectable
same,AZP labeling of Eml4-Alk lung tissue,[3],"protease-mediated, tumor-specific labeling"
same,tissue labeling pattern of intact Z1,"[3]; intact Z1 1 μmol/L, 37° C. 4 hours, Eml4-Alk tumors",maintained its spindle-like spatial pattern
same,tissue labeling pattern of FAP-precleaved Z1,"[3]; precleaved with recombinant FAP, 0.1 μM, Eml4-Alk tumors","diffuse, uniform labeling that mirrored that of a free polyR"
mesotrypsin (PRSS3),"in vitro pre-cleavage of the probe, read out by tissue fluorescence",[7],"We therefore pre-cleaved PZ2 with a serine protease, mesotrypsin (PRSS3)"
recombinant fibroblast activation protein (FAP),fluorescence activation monitored over time (cleavage of quenched probe),[8],Fibroblast activation protein (FAP) cleaves S1 in vitro
